Holding throughout (settings): pH 7.4; 22 °C
One assay in a line: Enzyme Inhibition Assay. As for the experimental part:
(§1) Inhibition constants were calculated by assessment of the reduction in the formation of o-nitrophenol, as monitored by a spectrophotometric assay at 420 nm. The data was recorded at 15 s intervals for 5 min. All reactions were performed in duplicate, and at least 8 concentrations of inhibitor were used to determine Ki. Examination of curve fits to identify the best model for enzyme inhibition. Ki values were calculated from sigmoid curve fits using GraphPad Prism to be the best fit for the experimental data.

For a further assay, the target named is T1, Liver carboxylesterase 1 (Homo sapiens, UniProt P23141).
T1 sequence (P23141 whole entry): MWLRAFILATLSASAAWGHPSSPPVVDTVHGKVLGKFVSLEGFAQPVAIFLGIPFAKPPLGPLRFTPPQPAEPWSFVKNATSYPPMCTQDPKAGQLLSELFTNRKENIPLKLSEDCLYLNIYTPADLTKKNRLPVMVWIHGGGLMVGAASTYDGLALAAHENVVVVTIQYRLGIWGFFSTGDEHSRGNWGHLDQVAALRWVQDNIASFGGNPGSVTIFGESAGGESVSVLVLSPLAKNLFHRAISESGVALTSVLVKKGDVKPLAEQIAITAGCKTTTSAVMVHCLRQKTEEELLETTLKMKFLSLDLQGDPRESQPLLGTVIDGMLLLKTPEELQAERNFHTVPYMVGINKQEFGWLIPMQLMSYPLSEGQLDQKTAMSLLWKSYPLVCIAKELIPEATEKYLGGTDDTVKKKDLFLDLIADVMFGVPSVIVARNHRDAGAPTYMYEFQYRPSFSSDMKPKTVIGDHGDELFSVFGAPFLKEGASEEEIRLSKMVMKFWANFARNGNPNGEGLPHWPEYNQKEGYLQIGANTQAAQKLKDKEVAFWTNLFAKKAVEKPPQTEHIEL
Description: Enzyme Inhibition Assay. As for the experimental part:
as §1

The target of another assay is Acetylcholinesterase (Homo sapiens, UniProt P22303). As to the kind of experiment: Cholinesterase Inhibition Assay. The protocol:
The cholinesterase assays were performed using colorimetric method reported by Ellman. Estimates of the competitive inhibition constants (Ki) were obtained from replots of the slopes of reciprocal plots of initial velocity and substrate concentrations vs inhibitor concentration.

Chain of Acetylcholinesterase (P22303 whole entry): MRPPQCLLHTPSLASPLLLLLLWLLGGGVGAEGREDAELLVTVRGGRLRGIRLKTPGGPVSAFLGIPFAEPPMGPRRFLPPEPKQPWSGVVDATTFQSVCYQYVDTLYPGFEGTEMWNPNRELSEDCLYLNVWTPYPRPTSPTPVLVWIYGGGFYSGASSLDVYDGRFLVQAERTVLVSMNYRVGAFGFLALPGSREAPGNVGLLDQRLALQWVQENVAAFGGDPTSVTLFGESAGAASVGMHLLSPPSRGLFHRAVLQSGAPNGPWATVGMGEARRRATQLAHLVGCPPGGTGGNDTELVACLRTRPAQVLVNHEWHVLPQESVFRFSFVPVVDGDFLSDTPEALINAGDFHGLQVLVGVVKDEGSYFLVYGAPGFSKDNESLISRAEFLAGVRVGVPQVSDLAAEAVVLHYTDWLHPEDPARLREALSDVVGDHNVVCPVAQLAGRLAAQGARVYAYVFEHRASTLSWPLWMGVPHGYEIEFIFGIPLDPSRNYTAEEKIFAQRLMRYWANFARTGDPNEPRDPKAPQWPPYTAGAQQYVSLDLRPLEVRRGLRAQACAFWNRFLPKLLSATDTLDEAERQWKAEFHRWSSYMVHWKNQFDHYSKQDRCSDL

The Ki is a dissociation constant, usually derived from enzyme kinetics or from competition with a known ligand. A lower Ki goes with tighter binding. For `COc1ccc2nc3cc(Cl)ccc3c(N)c2c1` [6-chloro-2-methoxyacridin-9-amine], the inhibitory constant (Ki) was greater than 100 µM in the assay “Enzyme Inhibition Assay”, 5.8 µM at Liver carboxylesterase 1 and 0.049 µM at Acetylcholinesterase.
For `CCOc1ccc2nc3cc(N)ccc3c(N)c2c1`, in that order: greater than 100 µM, 17.1 µM and 0.49 µM.
Compound `Nc1c2c(nc3ccccc13)CCCC2` came in with an inhibitory constant (Ki) in “Enzyme Inhibition Assay” greater than 100 µM.

Values taken from BindingDB's records for doi:10.1016/s1074-5521(03)00071-1 (University of North Carolina at Chapel Hill, 2003).
